The source of these data is patent publication US7338958B2, “Sulfoximine-substituted pyrimidines as CDK-and/or VEGF inhibitors, their production and use as pharmaceutical agents” (Schering AG, priority 2003, dated 2008).

The subject of data set [1] is MCF7, hormone-independent human breast cancer cells. The data set can be described thus: Proliferation assay, MCF7. In kind it is cell-based. Particulars: MCF7, 96 h, 4 days incubation, crystal violet. Put shortly: (§1)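 Cells seeded ~5000/well, treated after 24 h with 0.01-30 μM compound (0.5% DMSO) for 4 days. Glutaraldehyde-fixed cells stained with crystal violet, absorbance at 595 nm; growth expressed as percent, normalized to zero-point plate (0%) and untreated cells (100%).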

A further data set has as its target T1, CDK2/CycE (Homo sapiens, UniProt P24941).
T1 construct: GST; purchased ProQinase GmbH, Freiburg; host or cells: baculovirus-infected insect cells (Sf9)
Put plainly: CDK2/CycE Kinase Assay. Particulars: histone IIIS substrate, 33P-ATP, 15 minutes at 22° C. In kind it is biochemical. Put shortly:
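Recombinant GST-tagged CDK2/CycE from Sf9 cells (50 ng/point) was incubated with compound (0.01-100 μM) for 15 min at 22° C, pH 8.0, with 0.5 μM ATP plus ^33P-γ-ATP and histone IIIS as substrate, in 12.5% DMSO. Incorporated ^33P was counted after filter binding and washing.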

For a further data set, the target named is T2, CDK1/CycB (Homo sapiens, UniProt P06493).
T2 construct: GST; purchased ProQinase GmbH, Freiburg; host or cells: baculovirus-infected insect cells (Sf9)
T2 sequence (P06493 whole entry): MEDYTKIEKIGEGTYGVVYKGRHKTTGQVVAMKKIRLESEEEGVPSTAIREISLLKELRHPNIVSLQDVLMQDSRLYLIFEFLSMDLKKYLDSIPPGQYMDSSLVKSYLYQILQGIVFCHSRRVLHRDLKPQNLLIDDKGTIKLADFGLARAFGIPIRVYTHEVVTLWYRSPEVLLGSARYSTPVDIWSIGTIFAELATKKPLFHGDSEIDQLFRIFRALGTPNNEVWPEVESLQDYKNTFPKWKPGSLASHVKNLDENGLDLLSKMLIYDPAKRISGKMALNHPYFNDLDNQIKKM
T2 sequence (P14635 whole entry partner): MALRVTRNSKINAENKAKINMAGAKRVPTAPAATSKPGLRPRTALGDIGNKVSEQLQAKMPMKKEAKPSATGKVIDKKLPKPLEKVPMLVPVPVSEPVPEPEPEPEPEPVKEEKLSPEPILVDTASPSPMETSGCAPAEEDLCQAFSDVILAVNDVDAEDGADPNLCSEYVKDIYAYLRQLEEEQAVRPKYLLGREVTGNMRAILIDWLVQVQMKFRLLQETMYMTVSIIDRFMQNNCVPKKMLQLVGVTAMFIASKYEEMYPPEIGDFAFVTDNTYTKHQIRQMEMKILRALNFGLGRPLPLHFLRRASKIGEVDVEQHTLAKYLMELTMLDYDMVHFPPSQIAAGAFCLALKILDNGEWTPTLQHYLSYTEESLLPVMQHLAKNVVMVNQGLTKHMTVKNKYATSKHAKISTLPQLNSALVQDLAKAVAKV
The data set can be described thus: CDK1/CycB Kinase Assay. The settings on record: histone IIIS substrate, 33P-ATP, 15 minutes at 22° C. In kind it is biochemical.

The target in data set [2] is T3, VEGF receptor tyrosine kinase-2 (Homo sapiens, UniProt P35968).
T3 construct: GST; made in house; host or cells: baculovirus-infected insect cells (Sf9)
T3 sequence (P35968 20-1356): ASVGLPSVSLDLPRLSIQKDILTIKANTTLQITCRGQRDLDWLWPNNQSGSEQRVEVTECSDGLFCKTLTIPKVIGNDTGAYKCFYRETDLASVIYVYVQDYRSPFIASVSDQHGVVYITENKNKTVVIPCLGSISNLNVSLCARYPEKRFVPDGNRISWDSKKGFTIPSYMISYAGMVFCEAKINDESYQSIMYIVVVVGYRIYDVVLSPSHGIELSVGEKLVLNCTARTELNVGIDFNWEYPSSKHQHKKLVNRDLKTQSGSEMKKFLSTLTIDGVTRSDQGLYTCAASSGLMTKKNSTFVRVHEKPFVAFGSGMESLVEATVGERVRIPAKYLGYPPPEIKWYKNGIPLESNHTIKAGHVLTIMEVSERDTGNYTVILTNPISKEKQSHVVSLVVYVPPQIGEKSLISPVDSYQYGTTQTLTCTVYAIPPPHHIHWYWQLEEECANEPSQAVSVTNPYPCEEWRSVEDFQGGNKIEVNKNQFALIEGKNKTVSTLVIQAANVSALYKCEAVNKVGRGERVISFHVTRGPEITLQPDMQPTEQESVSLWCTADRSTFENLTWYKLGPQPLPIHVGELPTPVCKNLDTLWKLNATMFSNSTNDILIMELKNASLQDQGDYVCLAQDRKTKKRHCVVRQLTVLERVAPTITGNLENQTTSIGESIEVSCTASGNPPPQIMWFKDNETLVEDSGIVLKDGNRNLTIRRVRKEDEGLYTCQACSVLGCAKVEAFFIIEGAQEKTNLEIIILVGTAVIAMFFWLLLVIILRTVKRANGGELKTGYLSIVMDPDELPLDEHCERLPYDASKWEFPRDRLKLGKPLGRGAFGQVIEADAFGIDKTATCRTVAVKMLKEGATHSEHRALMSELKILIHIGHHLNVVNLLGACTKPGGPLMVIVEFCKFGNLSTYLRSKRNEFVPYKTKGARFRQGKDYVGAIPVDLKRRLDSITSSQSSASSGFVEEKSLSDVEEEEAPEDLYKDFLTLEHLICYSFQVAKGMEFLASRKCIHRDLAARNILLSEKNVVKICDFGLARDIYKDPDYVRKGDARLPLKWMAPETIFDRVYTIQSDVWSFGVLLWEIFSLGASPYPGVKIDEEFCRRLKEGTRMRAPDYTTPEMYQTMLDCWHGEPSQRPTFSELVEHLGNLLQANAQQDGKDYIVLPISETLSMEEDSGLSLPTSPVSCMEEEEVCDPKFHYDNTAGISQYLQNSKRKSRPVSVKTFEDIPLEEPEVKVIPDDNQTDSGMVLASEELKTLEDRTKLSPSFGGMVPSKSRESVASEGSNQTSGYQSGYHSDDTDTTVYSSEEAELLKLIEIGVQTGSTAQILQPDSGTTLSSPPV
The data set can be described thus: VEGF Receptor-2 Kinase Assay. In kind it is biochemical. Particulars: poly-(Glu4Tyr) substrate, 33P-ATP, 10 minutes at 22° C.; read-out: VEGF-R2 IC50.

In data set [3] the test system is NCI-H460, human non-small-cell lung cancer cells. Put plainly: Proliferation assay, H460. The settings on record: NCI-H460, 96 h, 4 days incubation, crystal violet. In kind it is cell-based. Put shortly: as §1
The subject of data set [4] is DU 145, hormone-independent human prostate cancer cells. Put plainly: Proliferation assay, DU145. In kind it is cell-based. Particulars: DU-145, 96 h, 4 days incubation, crystal violet. The method, boiled down:
as §1

The test system of data set [5] is HCT 116, human colon cancer cells. Put plainly: Proliferation assay, HCT116. In kind it is cell-based. Particulars: HCT-116, 96 h, 4 days incubation, crystal violet. The text has this:
Cultivated human tumor cells (MCF7, hormone-independent human breast cancer cells, related to ATCC HTB22; NCI-H460, human non-small-cell lung cancer cells, ATCC HTB-177, HCT 116, human colon cancer cells, ATCC CCL-247; DU 145, hormone-independent human prostate cancer cells, ATCC HTB-81; MaTu-MDR, hormone-independent, multiple pharmaceutical agent-resistant human breast cancer cells, EPO-GmbH, Berlin) were flattened out at a density of about 5000 cells/measuring point, depending on the growth rate of the respective cells, in a 96-well multititer plate in 200 μl of the corresponding growth medium. After 24 hours, the cells of one plate (zero-point plate) were colored with crystal violet (see below), while the medium of the other plates was replaced by fresh culture medium (200 μl), to which the test substances were added in various concentrations (0 μm, as well as in the range of 0.01-30 μm; the final concentration of the solvent dimethyl sulfoxide was 0.5%). The cells were incubated for 4 days in the presence of test substances. The cell proliferation was determined by coloring the cells with crystal violet: the cells were fixed by adding 20 μl/measuring point of an 11% glutaric aldehyde solution for 15 minutes at room temperature. After three washing cycles of the fixed cells with water, the plates were dried at room temperature. The cells were colored by adding 100 μl/measuring point of a 0.1% crystal violet solution (the pH was set at 3 by adding acetic acid). After three washing cycles of the colored cells with water, the plates were dried at room temperature. The dye was dissolved by adding 100 μl/measuring point of a 10% acetic acid solution. The extinction was determined by photometry at a wavelength of 595 nm. The change of cell growth, in percent, was calculated by normalization of the measured values to the extinction values of the zero-point plate (=0%) and the extinction of the untreated (0 μm) cells (=100%).

The test system of another data set is MaTu-ADR. The data set can be described thus: Proliferation assay, MaTu-ADR. Type of data set: cell-based. The settings on record: Homo sapiens, 96 h, MaTu-ADR cells, 4 days incubation, crystal violet. The method, boiled down: as §1
Another data set deals with Human Carboanhydrase-2 (Homo sapiens, UniProt P00918). The data set can be described thus: Carboanhydrase Assay. In kind it is biochemical. The settings on record: 4-nitrophenyl acetate hydrolysis, 400 nm; read-out: Inhibition of Human Carboanhydrase-2 IC50. Here is the method: 2 μl of the test compounds, dissolved in DMSO (100× the final concentration), in a concentration range of 0.03-10 μm (final), was pipetted as 4× determinations into the holes of a 96-hole microtiter plate. Holes that contained the solvent without test compounds were used as reference values (1. Holes without carboanhydrase for correction of the non-enzymatic hydrolysis of the substrate, and 2. Holes with carboanhydrase for determining the activity of the non-inhibited enzyme).
188 μl of assay buffer (10 mmol of Tris/HCl, pH 7.4, 80 mmol of NaCl), with or without 3 units/hole on carboanhydrase I or II, was pipetted into the holes of the microtiter plate.

Each structure is given as a SMILES string. Where a name gives a salt, the structure may show the parent alone. Bounds are passed on as bounds.

One may read the IC50 as the concentration that gives 50% inhibition. As a reminder, the melting point is the temperature of the solid-liquid transition. In the case of `CCC(CO)Sc1nc(Nc2ccc(S(C)(=N)=O)cc2)ncc1Br` (racemic) [Example 3.0, (RS)-S-[4-({5-bromo-4-[(RS)-(1-hydroxymethyl-propyl)sulfanyl]pyrimidin-2-yl}amino)phenyl]-S-methyl sulfoximide], the melting point lay within 175 to 180 °C. In data set [1], 500 nM corresponded to half-maximal inhibition (IC50). For the same molecule, on CDK2/CycE, the IC50 stood at 16 nM. This molecule also registered an IC50 at CDK1/CycB of 49 nM. The IC50 in [2] worked out at 170 nM.

For `CCC(Sc1nc(Nc2ccc(S(C)(=N)=O)cc2)ncc1Br)C(C)=O` (racemic) (as salt: sodium) [Example 3.3, (RS)-S-[4-({4-[(RS)-(1-acetylpropyl)sulfanyl]-5-bromopyrimidin-2-yl}amino)phenyl]-S-methyl sulfoximide], the melting point was in the range of 192 to 194 °C.

The molecule `C[C@@H](Nc1nc(Nc2ccc(S(=O)(=NS(=O)(=O)CC[Si](C)(C)C)C3CCCC3)cc2)ncc1Br)C(C)(C)O` (mixture of isomers) [Example 1.10, (RS)-S-[4-({5-bromo-4-[(R)-(2-hydroxy-1,2-dimethylpropyl)amino]pyrimidin-2-yl}amino)phenyl]-S-cyclopentyl-N-[2-(trimethylsilyl)ethylsulfonyl]sulfoximide] displayed a melting point of 200 to 201 °C.

With `C[C@@H](O)[C@@H](C)Oc1nc(Nc2ccc(S(C)(=N)=O)cc2)ncc1Br` (mixture of isomers) [Example 1.4, (RS)-S-[4-({5-bromo-4-[(1R,2R)-2-hydroxy-1-methylpropoxy]pyrimidin-2-yl}amino)phenyl]-S-methyl sulfoximide], the 50% inhibitory concentration (IC50) is 60 nM in data set [3]; 100 nM in [4]; 50 nM in [5]; 80 nM in the data set with MaTu-ADR; 60 nM in data set [1]; 13 nM on CDK1/CycB. For the same molecule, the IC50 in data set [2] worked out at 340 nM.

Turning to `CC(C)Nc1nc(Nc2ccc(S(C)(=N)=O)cc2)ncc1Br` (racemic) [Example 2.0, (RS)-S-(4-{[5-bromo-4-(isopropylamino)pyrimidin-2-yl]amino}phenyl)-S-methyl sulfoximide], the IC50 in [3] was 300 nM; in data set [4], 1700 nM; in data set [5] it was 300 nM; with MaTu-ADR it was 400 nM; in data set [1] it was 1500 nM; at CDK1/CycB, 110 nM. Besides, the IC50 at Human Carboanhydrase-2 is above 10000 nM.

Molecule `CC(Sc1nc(Nc2ccc(S(C)(=N)=O)cc2)ncc1Br)C(C)(C)O` (racemic) [Example 3.7, (RS)-S-[4-({5-bromo-4-[(RS)-(2-hydroxy-1,2-dimethylpropyl)sulfanyl]pyrimidin-2-yl}amino)phenyl]-S-methyl sulfoximide] showed a melting point of 201 to 202 °C. The molecule also had an IC50 in data set [3] below 100 nM. In [4], this molecule gave a half-maximal inhibitory concentration (IC50) below 100 nM. In the data set on MaTu-ADR, this molecule had an IC50 below 100 nM. Further, the IC50 in [1] is 100 nM. This molecule also came in with an IC50 at CDK1/CycB of 19 nM.

`C[C@H](CO)Nc1nc(Nc2ccc(S(C)(=O)=NS(=O)(=O)CC[Si](C)(C)C)cc2)ncc1Br` (mixture of isomers) [Example 2.1, (RS)-S-[4-({5-bromo-4-[(R)-(2-hydroxy-1-methylethyl)amino]pyrimidin-2-yl}amino)phenyl]-S-methyl-N-[2-(trimethylsilyl)ethylsulfonyl]sulfoximide]: the melting point lay in the range of 194 to 197 °C.

Take `C[C@@H](Nc1nc(Nc2ccc(S(C)(=N)=O)cc2)ncc1Br)C(C)(C)O` (single isomer, unassigned) [Example 1.3]: the IC50 in data set [4] is 200 nM; in data set [5], 100 nM; in the data set with MaTu-ADR, 170 nM; in data set [1], below 100 nM.

`CC(CO)Sc1nc(Nc2ccc(S(C)(=N)=O)cc2)ncc1Br` (racemic) [Example 3.10, (RS)-S-[4-({5-bromo-4-[(RS)-(2-hydroxy-1-methyl-ethyl)sulfanyl]pyrimidin-2-yl}amino)phenyl]-S-methyl sulfoximide] displayed a melting point of 218 to 220 °C. This molecule came in with an IC50 in data set [1] of 400 nM. At CDK2/CycE, this molecule came in with an IC50 of 4 nM. Also, on CDK1/CycB, inhibition was half-maximal at 18 nM (IC50).

In the case of `C[C@@H](Nc1nc(Nc2ccc(S(=N)(=O)C3CCCC3)cc2)ncc1Br)C(C)(C)O` (mixture of isomers) [Example 1.11, (RS)-S-[4-({5-bromo-4-[(R)-(2-hydroxy-1,2-dimethylpropyl)amino]pyrimidin-2-yl}amino)phenyl]-S-cyclopentylsulfoximide], the melting point fell in the range of 194 to 196 °C.

For the molecule `C[C@H](CO)Nc1nc(Nc2ccc(S(=O)(CC3CC3)=NS(=O)(=O)CC[Si](C)(C)C)cc2)ncc1Br` (mixture of isomers) [Example 1.7, (RS)-S-[4-({5-bromo-4-[(R)-(2-hydroxy-1-methylethyl)amino]pyrimidin-2-yl}amino)phenyl]-S-(cyclopropylmethyl)-N-[2-(trimethylsilyl)ethylsulfonyl]sulfoximide], the melting point is 195 °C (dec.).

With `CCC(Sc1nc(Nc2ccc(S(C)(=N)=O)cc2)ncc1Br)C(C)(C)O` (racemic) [Example 3.8, (RS)-S-[4-({5-bromo-4-[(RS)-(1-ethyl-2-hydroxy-2-methylpropyl)sulfanyl]pyrimidin-2-yl}amino)phenyl]-S-methyl sulfoximide], the melting point is 218 °C (dec.). Also, the IC50 in data set [3] turned out to be 300 nM. Further, in [4], the IC50 amounted to 300 nM. Further, the IC50 in the data set with MaTu-ADR stood at 190 nM. Moreover, the IC50 in [1] turned out to be 400 nM. The same molecule registered an IC50 against CDK2/CycE of 27 nM. Besides, in [2], the IC50 is above 1000 nM.

Turning to `CCC(C)Sc1nc(Nc2ccc(S(C)(=N)=O)cc2)ncc1Br` (racemic) [Example 3.1, (RS)-S-[4-({5-bromo-4-[(RS)-(1-methyl-propyl)sulfanyl]pyrimidin-2-yl}amino)phenyl]-S-methyl sulfoximide], the melting point lay in the range of 175 to 183 °C. The IC50 in data set [1] was 400 nM. This molecule yielded an IC50 against CDK2/CycE of 33 nM. This molecule showed an IC50 at CDK1/CycB of 97 nM. The IC50 in [2] turned out to be 120 nM.

For `C[C@@H](O)[C@@H](C)Oc1nc(Nc2ccc(S(=O)(CCO)=NS(=O)(=O)CC[Si](C)(C)C)cc2)ncc1Br` (mixture of isomers) [Example 1.20, (RS)-S-[4-({5-bromo-4-[(1R,2R)-2-hydroxy-1-methyl-propoxy]pyrimidin-2-yl}amino)phenyl]-S-(2-hydroxyethyl)-N-[2-(trimethylsilyl)ethylsulfonyl]sulfoximide], the IC50 in data set [3] came to 400 nM; in data set [4], 400 nM; in the data set on MaTu-ADR it was 2100 nM; in [1], 200 nM; against CDK2/CycE it was 54 nM; against CDK1/CycB it was 160 nM. Also, the IC50 in data set [2] stood at 820 nM.
